System: Lewis lung carcinoma (LLC) tumour
Assay: Biodistribution in LLC tumour model in vivo
Set-up: species or system C57BL/6 mice
Description: 1×10^6 Lewis lung carcinoma (LLC) cells are injected subcutaneously into right inner thigh of C57BL/6 mice. Tumours were allowed to grow for 15 days prior to biodistribution being carried out.
Biodistribution studies were performed in the LLC tumour model.
Biodistribution was performed in the LLC tumour model of Example 23 with Compounds 46B and 48B.

| % ID Urinary (urinary excretion), mean (5 min post injection) | % ID/g Tumour, mean (5 min post injection) | Tumour/Blood, mean (5 min post injection) | Tumour/Heart, mean (5 min post injection) | Tumour/Lung, mean (5 min post injection) | Tumour/Muscle, mean (5 min post injection) | % ID Urinary (urinary excretion), mean (30 min post injection) | % ID/g Tumour, mean (30 min post injection) | Tumour/Blood, mean (30 min post injection) | Tumour/Heart, mean (30 min post injection) | Tumour/Lung, mean (30 min post injection) | Tumour/Muscle, mean (30 min post injection) | % ID Urinary (urinary excretion), mean (60 min post injection) | % ID/g Tumour, mean (60 min post injection) | Tumour/Blood, mean (60 min post injection) | Tumour/Heart, mean (60 min post injection) | Tumour/Lung, mean (60 min post injection) | Tumour/Muscle, mean (60 min post injection) | % ID Urinary (urinary excretion), mean (120 min post injection) | % ID/g Tumour, mean (120 min post injection) | Compound | other results |
| --- | --- | --- | --- | --- | --- | --- | --- | --- | --- | --- | --- | --- | --- | --- | --- | --- | --- | --- | --- | --- | --- |
| 6.89 % ID | 2.26 % ID/g | 0.26 | 0.47 | 0.26 | 1.46 | 16.98 % ID | 2.67 % ID/g | 0.54 | 1.24 | 0.57 | 3.22 | 31.69 % ID | 2.35 % ID/g | 0.66 | 1.49 | 0.74 | 3.52 | 48.07 % ID | 1.29 % ID/g | NCCCC[C@H](NC(=O)CCN(C1(C(=O)NO)CCCC1)S(=O)(=O)c1ccc(Oc2ccc(F)cc2)cc1)C(=O)N[C@@H](CCCCN)C(=O)N[C@@H](CCCCN)C(=O)N[C@@H](CCCCN)C(=O)N[C@@H](CCCCN)C(=O)NCCOCCOCCOCCNC(=O)COCC(=O)N[C@@H](Cc1ccc(O)c([123I])c1)C(N)=O [Compound 42A] | Tumour/Blood, mean (120 min post injection): 0.56; Tumour/Heart, mean (120 min post injection): 1.49; Tumour/Lung, mean (120 min post injection): 0.60; Tumour/Muscle, mean (120 min post injection): 2.51 |
|  |  |  |  |  |  |  |  |  |  |  |  |  |  |  |  |  |  |  |  | NC(=O)[C@H](Cc1ccc(O)c([123I])c1)NC(=O)COCC(=O)NCCOCCOCCOCCNC(=O)CCN(C1(C(=O)NO)CCCC1)S(=O)(=O)c1ccc(Oc2ccc(F)cc2)cc1 [Compound 20A] | Decrease in HBS (hepatobiliary) excretion compared to Compound 24A: 10%; Increase in urinary excretion compared to Compound 24A: 10%; Tumour retention compared to Compound 24A: slightly increased; Uptake into the tumour compared to Compound 24A: slightly lower |
| 6.37 % ID | 2.08 % ID/g | 0.13 | 0.29 | 0.33 | 1.22 | 40.17 % ID | 2.14 % ID/g | 0.30 | 0.90 | 0.73 | 2.19 | 68.53 % ID | 1.06 % ID/g | 0.45 | 1.25 | 0.83 | 2.27 | 78.75 % ID | 0.42 % ID/g | NC(=O)[C@H](Cc1ccc(O)c([123I])c1)NC(=O)COCC(=O)NCCOCCOCCOCCNC(=O)[C@H](CCC(=O)O)NC(=O)[C@H](CCC(=O)O)NC(=O)[C@H](CCC(=O)O)NC(=O)[C@H](CCC(=O)O)NC(=O)[C@H](CCC(=O)O)NC(=O)CCN(C1(C(=O)NO)CCCC1)S(=O)(=O)c1ccc(Oc2ccc(F)cc2)cc1 [Compound 38A] | Tumour/Blood, mean (120 min post injection): 0.52; Tumour/Heart, mean (120 min post injection): 1.14; Tumour/Lung, mean (120 min post injection): 0.64; Tumour/Muscle, mean (120 min post injection): 1.82 |
| 3.94 % ID | 1.14 % ID/g | 0.41 | 0.86 | 0.49 | 1.91 | 5.85 % ID | 0.5 % ID/g | 0.38 | 0.870 | 0.54 | 1.57 | 6.36 % ID | 0.66 % ID/g | 0.42 | 0.940 | 0.69 | 2.3 | 9.42 % ID | 0.53 % ID/g | NC(=O)[C@H](Cc1ccc(O)c([123I])c1)NC(=O)CCOCCOCCOCCOCCOCCOCCOCCOCCOCCOCCOCCNC(=O)CCN(C1(C(=O)NO)CCCC1)S(=O)(=O)c1ccc(Oc2ccc(F)cc2)cc1 [Compound 44A] | Tumour/Blood, mean (120 min post injection): 0.43; Tumour/Heart, mean (120 min post injection): 1.060; Tumour/Lung, mean (120 min post injection): 0.72; Tumour/Muscle, mean (120 min post injection): 2.8 |
| 5.62 % ID | 1.64 % ID/g | 0.13 | 0.30 | 0.28 | 0.92 | 26.73 % ID | 2.20 % ID/g | 0.33 | 0.83 | 0.65 | 1.72 | 39.99 % ID | 1.97 % ID/g | 0.40 | 1.14 | 0.66 | 2.30 | 52.08 % ID | 1.60 % ID/g | NC(=O)[C@H](Cc1ccc(O)c([123I])c1)NC(=O)[C@H](CCC(=O)O)NC(=O)[C@H](CCC(=O)O)NC(=O)[C@H](CCC(=O)O)NC(=O)[C@H](CCC(=O)O)NC(=O)[C@H](CCC(=O)O)NC(=O)CCN(C1(C(=O)NO)CCCC1)S(=O)(=O)c1ccc(Oc2ccc(F)cc2)cc1 [Compound 21A] | Tumour/Blood, mean (120 min post injection): 0.37; Tumour/Heart, mean (120 min post injection): 0.91; Tumour/Lung, mean (120 min post injection): 0.61; Tumour/Muscle, mean (120 min post injection): 2.44 |
